# Assay results taken from US12630498B2 (Genzyme Corporation, priority 2019, dated 2026).
# Assays:
# [1] = molecular target: T1, human Cystic Fibrosis Transmembrane Conductance Regulator (CFTR) harboring the ΔF508 mutation (Homo sapiens, UniProt P13569, DEL508-508); assay: H441 cell ΔF508-CFTR-HRP cell surface assay (Emax and EC50); type: cell-based; conditions: for Emax: NCI-H441, NA = Not active
# T1 construct: expressed in transfected cells; host or cells: H441 carcinoma line (G418-selected)
# T1 sequence (P13569 with tags, fused parts or gaps DEL508-508): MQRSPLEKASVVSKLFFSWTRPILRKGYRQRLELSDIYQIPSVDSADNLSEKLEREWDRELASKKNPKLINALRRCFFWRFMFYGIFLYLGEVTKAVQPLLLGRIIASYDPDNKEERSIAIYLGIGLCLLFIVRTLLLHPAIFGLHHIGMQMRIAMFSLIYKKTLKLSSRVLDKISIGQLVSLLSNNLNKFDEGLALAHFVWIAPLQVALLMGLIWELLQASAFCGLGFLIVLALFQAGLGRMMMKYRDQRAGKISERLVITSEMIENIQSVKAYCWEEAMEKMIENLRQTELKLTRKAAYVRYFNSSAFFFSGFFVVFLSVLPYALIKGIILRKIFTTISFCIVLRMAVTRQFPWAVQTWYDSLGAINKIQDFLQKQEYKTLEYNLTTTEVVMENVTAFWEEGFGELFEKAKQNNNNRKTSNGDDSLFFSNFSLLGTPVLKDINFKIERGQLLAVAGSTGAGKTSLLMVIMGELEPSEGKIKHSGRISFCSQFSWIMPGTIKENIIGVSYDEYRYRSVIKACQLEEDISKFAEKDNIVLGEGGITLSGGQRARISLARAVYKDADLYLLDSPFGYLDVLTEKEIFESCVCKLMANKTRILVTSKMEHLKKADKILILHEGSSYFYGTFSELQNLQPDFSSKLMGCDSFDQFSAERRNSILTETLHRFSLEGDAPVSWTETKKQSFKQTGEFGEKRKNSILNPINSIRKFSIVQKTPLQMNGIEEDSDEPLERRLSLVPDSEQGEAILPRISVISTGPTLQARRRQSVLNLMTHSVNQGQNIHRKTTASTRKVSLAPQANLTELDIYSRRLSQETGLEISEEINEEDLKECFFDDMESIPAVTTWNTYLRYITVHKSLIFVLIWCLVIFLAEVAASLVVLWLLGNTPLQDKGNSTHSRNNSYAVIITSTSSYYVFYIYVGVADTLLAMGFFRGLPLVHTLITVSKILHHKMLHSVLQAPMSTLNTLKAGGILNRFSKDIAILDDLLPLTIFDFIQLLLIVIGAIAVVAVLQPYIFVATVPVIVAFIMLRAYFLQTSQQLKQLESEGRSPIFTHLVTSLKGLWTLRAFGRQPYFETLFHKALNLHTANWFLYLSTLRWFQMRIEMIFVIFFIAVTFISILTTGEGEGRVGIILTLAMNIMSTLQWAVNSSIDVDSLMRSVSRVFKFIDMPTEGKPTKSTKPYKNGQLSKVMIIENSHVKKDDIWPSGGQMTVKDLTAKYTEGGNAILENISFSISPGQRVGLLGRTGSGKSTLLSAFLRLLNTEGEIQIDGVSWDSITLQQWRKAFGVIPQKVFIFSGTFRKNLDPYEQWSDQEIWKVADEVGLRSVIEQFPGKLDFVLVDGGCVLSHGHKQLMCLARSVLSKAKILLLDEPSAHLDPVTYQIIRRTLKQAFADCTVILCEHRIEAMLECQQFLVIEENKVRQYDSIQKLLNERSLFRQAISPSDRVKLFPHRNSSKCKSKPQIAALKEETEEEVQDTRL
# In short: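 H441 and 41o- bronchial epithelial cells expressing ΔF508-CFTR with an extracellular-loop-4 HRP tag were treated with a 15-point compound series (24.5–0.001 μM) for two nights, H441 at 27° C, 41o- at 37° C with 0.0005 mg/ml doxycycline. Surface HRP luminescence read; % of maximum VX809 signal and EC50 derived.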
# [2] = molecular target: T2, CFTR-mediated transepithelial chloride transport in primary human bronchial epithelial cells from a ΔF508 homozygous CF donor (Homo sapiens, UniProt P13569, DEL508-508); assay: TECC24 recording of CFTR-mediated transepithelial chloride transport in CF-HBE cells (AUC fold over DMSO); type: cell-based; conditions: test agent 10 μM, 48 hours incubation, AUC of forskolin-stimulated IEQ relative to DMSO
# T2 construct: Primary human bronchial epithelial cells from a ΔF508 homozygous CF donor; host or cells: primary CF-HBE cells, ΔF508 homozygous donor
# T2 sequence (P13569 with tags, fused parts or gaps DEL508-508): as above
# In short: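 Primary ΔF508/ΔF508 CF-HBE cells on inserts exposed to test agent in IL-13-containing medium for 48 h at 36.5 °C. Current-clamp VT/TEER recording in pH 7.4 HEPES saline with benzamil 10 μM, forskolin 10 μM, then CFTRinh-172 20 μM. AUC of equivalent Cl⁻ current between forskolin and inhibitor, expressed as ratio over vehicle.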
Structure (SMILES),EC50 [1],Emax [1],TECC24 AUC fold over DMSO @10 μM [2]
"CC(C)(C)C[C@H](NC(=O)c1ccc2ccccc2c1OCc1ccc(S(F)(F)(F)(F)F)cc1)C(=O)O [Example 110, (S)-4,4-dimethyl-2-(1-((4-(pentafluoro-16-sulfanyl)benzyl)oxy)-2-naphthamido)pentanoic Acid]",2100 nM,83.1%,B (“B” refers to AUC @10 uM between 4-6)
"CC(C)(C)[C@H](NC(=O)c1ccc2cc(O)ccc2c1OCc1ccc(C(F)(F)F)cc1)C(=O)O [Example 59, (S)-2-(6-hydroxy-1-((4-(trifluoromethyl)benzyl)oxy)-2-naphthamido)-3,3-dimethylbutanoic Acid]",1900 nM,108%,C (“C” refers to AUC @10 uM <4)
"O=C(N[C@@H](Cc1ccccc1)C(=O)O)c1ccc2ccccc2c1OCc1ccccc1C(F)(F)F [Example 93, (1-((2-(trifluoromethyl)benzyl)oxy)-2-naphthoyl)-L-phenylalanine]",–,13.1%,C (“C” refers to AUC @10 uM <4)
"CC(C)(C)[C@H](NC(=O)c1ccc2cc(F)ccc2c1OCc1ccc(S(F)(F)(F)(F)F)cc1)C(=O)O [Example 81, (S)-2-(6-fluoro-1-((4-(pentafluoro-16-sulfanyl)benzyl)oxy)-2-naphthamido)-3,3-dimethylbutanoic Acid]",700 nM,91.9%,A (“A” refers to AUC @10 uM >6)
"O=C(N[C@@H](Cc1ccccc1)C(=O)O)c1ccc2ccccc2c1OCCc1ccc(C(F)(F)F)cc1 [Example 97, (1-(4-(trifluoromethyl)phenethoxy)-2-naphthoyl)-L-phenylalanine]",–,1.1%,C (“C” refers to AUC @10 uM <4)
"O=C(N[C@H](C(=O)O)C(c1ccccc1)c1ccccc1)c1ccc2ccccc2c1OCc1ccc(C(F)(F)C(F)(F)F)cc1 [Example 131, (S)-2-(1-((4-(perfluoroethyl)benzyl)oxy)-2-naphthamido)-3,3-diphenylpropanoic Acid]",100 nM,204%,C (“C” refers to AUC @10 uM <4)

# Now from value to compound:
EC50 [1],Emax [1],TECC24 AUC fold over DMSO @10 μM [2],Structure (SMILES)
10900 nM,82.5%,C (“C” refers to AUC @10 uM <4),"C[C@@H](OCc1ccccc1)C(NC(=O)c1ccc2ccccc2c1OCC1CCCCC1)C(=O)O (stereo partly drawn) [Example 150, (3R)-3-(benzyloxy)-2-(1-(cyclohexylmethoxy)-2-naphthamido)butanoic Acid]"
200 nM,248%,A (“A” refers to AUC @10 uM >6),"Cc1cc2c(OCc3ccc(C(F)(F)F)cc3)c(C(=O)N[C@H](C(=O)O)C(C)(C)C)ccc2cc1F [Example 278, (S)-2-(6-fluoro-7-methyl-1-((4-(trifluoromethyl)benzyl)oxy)-2-naphthamido)-3,3-dimethylbutanoic Acid]"
2200 nM,127%,B (“B” refers to AUC @10 uM between 4-6),"CCC(C)(C)[C@@H](NC(=O)c1ccc2ccc(C)cc2c1OCc1ccc(OC(F)(F)F)cc1)C(=O)O [Example 312, (R)-3,3-dimethyl-2-(7-methyl-1-((4-(trifluoromethoxy)benzyl)oxy)-2-naphthamido)pentanoic Acid]"
4100 nM,135%,C (“C” refers to AUC @10 uM <4),"CC(C)(C)C[C@H](NC(=O)c1ccc2ccccc2c1OCC1CCCCC1)C(=O)O [Example 201, (S)-2-(1-(cyclohexylmethoxy)-2-naphthamido)-4,4-dimethylpentanoic Acid]"
700 nM,164%,B (“B” refers to AUC @10 uM between 4-6),"CC(C)(S[C@@H]1C[C@@H]2CC[C@H]1C2)[C@H](NC(=O)c1ccc2ccccc2c1OCc1ccc(C(F)(F)F)cc1)C(=O)O [Example 173, (R)-3-(((1S,2R,4R)-bicyclo[2.2.1]heptan-2-yl)thio)-3-methyl-2-(1-((4-(trifluoromethyl)benzyl)oxy)-2-naphthamido)butanoic Acid]"
